According to patent US11351151B2, “Compound having anticancer activity and preparation method and application” (3D Medicines (Beijing) Co., Ltd., priority 2016, dated 2022):

Columns and labels:
Assay in all cases: Cell proliferation assay (Alamar Blue)
Type in all cases: cell-based
[1] = test system: SK-HEP-1; details: Homo sapiens, SK-HEP1, 144 h; SK-HEP-1 liver cancer cell line; 6 days
Method: (§1) 1. Instruments and Materials • Thermo 311 CO2 incubator; Haier biosafety cabinet; Molecular Devices microplate reader; Xiangyi brand L530 desktop low speed centrifuge; Olympus IX51 inverted fluorescence microscope, DMEM, RPMI 1640, MEM, DMEM/F12 1:1 medium, Fetal bovine serum, 0.25% trypsin solution, phosphate buffer (Thermo Fisher Shanghai Co., Ltd.); sigma dimethyl sulfoxide (DMSO), resazurin; 54 commercial tumor cell lines (including 26 liver cancer cell lines). Experimental drugs: compounds 1-12 and active drug Linifanib; chemotherapeutic drug Doxorubicin (HY-15142; Shanghai Qianyuan Biomedical Technology Co., Ltd.).
(§2) 2. Experimental Methods • 2.1 Cultivation of different cell lines • 54 cell lines were cultured in a culture medium containing fetal bovine serum and placed in a 5% CO 2 incubator at 37° C. for incubation. The cells were all grown in an adherent state, and the growth was observed under an inverted microscope, and subculture was performed when the cell confluence rate reached 80%-90%. The proportion and quantity of passage were determined by experimental needs. The ratio of subculture of this cell line was generally 1:2^˜1:3. • 2.2 inhibition effect on the proliferation of different tumor cell lines • Cell test: 54 cell lines in logarithmic growth phase were inoculated in 96-well culture plates at 500^˜1×10^4/well (the optimal seeding density of each cell line was determined in pre-experiment), After incubating at 37° C. for 4 h in a 5% CO2 humidification incubator, added 10 μL of compounds 1-12 or Linifanib to each well, and tested 9 drug concentration gradients for each compound (diluted from the highest concentration of the test by 3.16 times). The solubility of each compound was different at a starting concentration of 30 or 100 μM, respectively. The QC reference compound Doxorubicin was added simultaneously to each cell line test, and the final drug concentrations were 10, 3.16, 1, 0.31, 0.1, 0.03, 0.01, 0.003, and 0.001 μM, respectively. In addition, a positive control group (100% inhibition) and a negative control group (0% inhibition) were set at the same time. The drug group was repeated for 2 wells per concentration, and the positive control group and the negative control group were repeated for 6 wells. After the culture was continued for 6 days in the incubator, AlamarBlue test operation was followed; • AlamarBlue test procedure: Incubated with 10 μL of AlamarBlue reagent per well for 1-4 h, shook for 1-2 min, MD microplate reader EX: 560 nm, EM: 590 nm wavelength to measure fluorescence, recorded the results, calculated the cell inhibition rate of the compound of the invention. Cell inhibition rate (%)=(A0% inhibition−A administration)/(A0% inhibition−A100% inhibition)×100%, and then using the method of nonlinear regression using Graph Pad Prism 5.0 or MATILAB software (usually using four parameters) to graph and obtain a drug dose response curve to obtain an IC50 value of the compound of the present invention acting on a cancer cell line.

[2] = test system: Li-7; details: 144 h; Li-7 liver cancer cell line; 6 days
Method: as §1, §2

[3] = test system: NCl-H2170; details: 144 h; NCl-H2170 tumor cell line; 6 days
Method: as §1, §2

[4] = test system: HT55; details: Homo sapiens, 144 h; HT55 tumor cell line; 6 days
Method: as §1, §2

[5] = test system: SNU739; details: SNU-739, 144 h; SNU739 liver cancer cell line; 6 days
Method: as §1, §2

[6] = test system: JHH7; details: 144 h; JHH7 liver cancer cell line; 6 days
Method: as §1, §2

[7] = test system: AN3CA; details: Homo sapiens, AN3-CA, 144 h; AN3CA (endometrial cells); 6 days
Method: as §1, §2

[8] = test system: LNCAP-clone-FGC; details: Homo sapiens, 144 h; LNCAP-clone-FGC tumor cell line; 6 days
Method: as §1, §2

[9] = test system: NCl-H526; details: 144 h; NCl-H526 tumor cell line; 6 days
Method: as §1, §2

[10] = test system: HUH7; details: Homo sapiens, Huh-7, 144 h; HUH7 liver cancer cell line; 6 days
Method: as §1, §2

[11] = test system: HT1080; details: Homo sapiens, HT-1080, 144 h; HT1080 tumor cell line; 6 days
Method: as §1, §2

[12] = test system: MDA-MB-231; details: Homo sapiens, 144 h; MDA-MB-231 tumor cell line; 6 days
Method: as §1, §2

[13] = test system: NCl-H716; details: 144 h; NCl-H716 tumor cell line; 6 days
Method: as §1, §2

[14] = test system: 22RV1; details: Homo sapiens, 144 h; 22RV1 tumor cell line; 6 days
Method: as §1, §2

[15] = test system: NCl-H1648; details: 144 h; NCl-H1648 tumor cell line; 6 days
Method: as §1, §2

[16] = test system: DLD1; details: Homo sapiens, DLD-1, 144 h; DLD1 tumor cell line; 6 days
Method: as §1, §2

[17] = test system: SNU387; details: Homo sapiens, SNU-387, 144 h; SNU387 liver cancer cell line; 6 days
Method: as §1, §2

[18] = test system: SNU761; details: 144 h; SNU761 liver cancer cell line; 6 days
Method: as §1, §2

[19] = test system: DU145; details: Homo sapiens, DU-145, 144 h; DU145 tumor cell line; 6 days
Method: as §1, §2

[20] = test system: JHH2; details: JHH-2, 144 h; JHH2 liver cancer cell line; 6 days
Method: as §1, §2

[21] = test system: HEPG2; details: Homo sapiens, 144 h; HEPG2 liver cancer cell line; 6 days
Method: as §1, §2

[22] = test system: SNU354; details: Homo sapiens, SNU-354, 144 h; SNU354 liver cancer cell line; 6 days
Method: as §1, §2

[23] = test system: JHH4; details: JHH-4, 144 h; JHH4 liver cancer cell line; 6 days
Method: as §1, §2

SMILES	IC50 [1] [µM]	IC50 [2] [µM]	IC50 [3] [µM]	IC50 [4] [µM]	IC50 [5] [µM]	IC50 [6] [µM]	IC50 [7] [µM]	IC50 [8] [µM]	IC50 [9] [µM]	IC50 [10] [µM]	IC50 [11] [µM]	IC50 [12] [µM]	IC50 [13] [µM]	IC50 [14] [µM]	IC50 [15] [µM]	IC50 [16] [µM]	IC50 [17] [µM]	IC50 [18] [µM]	IC50 [19] [µM]	IC50 [20] [µM]	further results
Cc1ccc(F)c(NC(=O)Nc2ccc(-c3cccc4c3c(N)nn4C(=O)C[C@H](N)C(=O)N[C@@H](CCC(=O)N[C@@H](CCC(=O)N[C@@H](CCC(=O)N[C@@H](CCC(=O)N[C@@H](CCC(=O)N[C@@H](CCC(=O)N[C@@H](CCC(=O)N[C@@H](CCC(=O)N[C@@H](CCC(=O)O)C(=O)O)C(=O)O)C(=O)O)C(=O)O)C(=O)O)C(=O)O)C(=O)O)C(=O)O)C(=O)O)cc2)c1 [Compound 3]	15.8	10.1	7.89	31.3	8.05	5.69	0.64	15.4	11.3	6.69	25.8	8.51	6.09	10.3	13.6	20.3	40.1	29.1	7.38	40.7	IC50 [21]: 1.73 µM; IC50 [22]: 16.8 µM; IC50 [23]: 12.1 µM
Cc1ccc(F)c(NC(=O)Nc2ccc(-c3cccc4c3c(N)nn4C(=O)C[C@H](N)C(=O)N[C@@H](CCC(=O)N[C@@H](CCC(=O)N[C@@H](CCC(=O)N[C@@H](CCC(=O)O)C(=O)O)C(=O)O)C(=O)O)C(=O)O)cc2)c1 [Compound 2]	9.25	7.26	3.46	20.4	6.33	2.84	0.45	6.34	8.94	4.32	19.3	5.02	2.84	7.81	8.91	14	19.4	15.3	4.89	36	IC50 [21]: 0.64 µM; IC50 [22]: 7.01 µM; IC50 [23]: 5.83 µM
Cc1ccc(F)c(NC(=O)Nc2ccc(-c3cccc4c3c(N)nn4C(=O)CCCCCCCCCCCNC(=O)C[C@H](N)C(=O)O)cc2)c1 [Compound 12]	> 30	> 30	> 30	> 30	> 30	> 30	2.08	> 30	> 30	> 30	> 30	> 30	> 30	> 30	> 30	> 30	30.3	> 30	> 30	> 30	IC50 [21]: > 30 µM; IC50 [22]: > 30 µM; IC50 [23]: > 30 µM
Cc1ccc(F)c(NC(=O)Nc2ccc(-c3cccc4c3c(N)nn4C(=O)CCCCCCCCCCCNC(=O)C[C@H](N)C(=O)N[C@@H](CCC(=O)N[C@@H](CCC(=O)N[C@@H](CCC(=O)N[C@@H](CCC(=O)N[C@@H](CCC(=O)N[C@@H](CCC(=O)N[C@@H](CCC(=O)N[C@@H](CCC(=O)N[C@@H](CCC(=O)O)C(=O)O)C(=O)O)C(=O)O)C(=O)O)C(=O)O)C(=O)O)C(=O)O)C(=O)O)C(=O)O)cc2)c1 [Compound 9]	> 100	49.3	84	> 100	> 100	42.2	8.42	> 100	> 100	30.3	> 100	81.1	43.1	> 100	> 100	> 100	> 100	> 100	34.5	> 100	IC50 [21]: 11 µM; IC50 [22]: 67.3 µM; IC50 [23]: > 100 µM
Cc1ccc(F)c(NC(=O)Nc2ccc(-c3cccc4c3c(N)nn4C(=O)C[C@H](N)C(=O)O)cc2)c1 [Compound 10]	2.75	4.38	1.24	14.9	3.87	1.65	0.24	5.13	4.39	2.89	8.82	3.17	1.93	6.21	6.06	7.53	10.5	9.04	1.34	25.1	IC50 [21]: 0.37 µM; IC50 [22]: 4.57 µM; IC50 [23]: 2.31 µM
Cc1ccc(F)c(NC(=O)Nc2ccc(-c3cccc4c3c(N)nn4C(=O)CCCCCCCCCCCNC(=O)C[C@H](N)C(=O)N[C@@H](CCC(=O)O)C(=O)O)cc2)c1 [Compound 7]	29.2	34.5	22.5	> 100	37.4	9.98	2.94	26.7	> 100	22.1	> 100	32.1	8.45	> 100	> 100	97	> 100	> 100	17.2	> 100	IC50 [21]: 5.83 µM; IC50 [22]: 30.2 µM; IC50 [23]: 39.4 µM
Cc1ccc(F)c(NC(=O)Nc2ccc(-c3cccc4c3c(N)nn4C(=O)CCCCCNC(=O)C[C@H](N)C(=O)N[C@@H](CCC(=O)O)C(=O)O)cc2)c1 [Compound 4]	64	47.2	84	> 100	73.8	45.9	28.7	75.3	> 100	60	> 100	96.5	43.8	> 100	> 100	> 100	> 100	85	38	> 100	IC50 [21]: 19 µM; IC50 [22]: 78.8 µM; IC50 [23]: 42.5 µM
